The record followed here is publication PMC10980263, “Cryo-EM structures of the human NaS1 and NaDC1 transporters revealed the elevator transport and allosteric regulation mechanism” (Science Advances, 2024).

Data set [1] addresses T1, NaDC1 (Homo sapiens, UniProt Q13183).
T1 sequence (Q13183 1-592): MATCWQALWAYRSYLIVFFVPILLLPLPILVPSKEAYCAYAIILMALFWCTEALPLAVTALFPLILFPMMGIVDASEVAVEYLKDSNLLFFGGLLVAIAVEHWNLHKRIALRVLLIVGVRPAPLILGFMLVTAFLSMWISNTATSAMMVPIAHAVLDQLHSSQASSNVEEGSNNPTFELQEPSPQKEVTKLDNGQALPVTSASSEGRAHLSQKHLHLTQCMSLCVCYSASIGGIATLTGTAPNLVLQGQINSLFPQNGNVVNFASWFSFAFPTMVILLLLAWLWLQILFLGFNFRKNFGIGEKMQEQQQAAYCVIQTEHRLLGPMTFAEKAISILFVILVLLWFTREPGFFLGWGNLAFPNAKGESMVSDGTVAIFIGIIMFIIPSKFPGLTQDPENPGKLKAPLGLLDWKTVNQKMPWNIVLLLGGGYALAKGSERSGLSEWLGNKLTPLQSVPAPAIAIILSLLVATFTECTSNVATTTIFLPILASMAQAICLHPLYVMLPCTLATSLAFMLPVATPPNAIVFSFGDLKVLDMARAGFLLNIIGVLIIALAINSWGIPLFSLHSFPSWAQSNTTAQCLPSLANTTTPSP
Nature of the data set: whole-cell patch clamp, transfected HEK293T. As to conditions: citrate-induced current; reversible on washout. It is filed as cell-based. Set-up: gene SLC13A2; full length, homodimer; GFP and FLAG tagged in HEK293T for currents.

Data set [2] addresses T2, NaDC1 (Homo sapiens, UniProt Q13183, I550V).
T2 construct: gene SLC13A2; full length, homodimer; N-terminal FLAG purified from HEK293F (structures, natural variant I550V); GFP and FLAG tagged in HEK293T for currents
T2 sequence (Q13183 1-592 I550V): T1 sequence (Q13183 1-592) with I550V
As to the kind of experiment: cryo-EM structure ([…] Å). As to conditions: 400 μM ACA; allosteric site of TM2, L10, TM11, TM6a. Format: binding.

For the next data set, the target named is T3, NaS1 (Homo sapiens, UniProt Q9BZW2).
T3 construct: gene SLC13A1; full length, N-terminal FLAG tag, HEK293F membranes, purified in GDN, homodimer
T3 sequence (Q9BZW2 1-595): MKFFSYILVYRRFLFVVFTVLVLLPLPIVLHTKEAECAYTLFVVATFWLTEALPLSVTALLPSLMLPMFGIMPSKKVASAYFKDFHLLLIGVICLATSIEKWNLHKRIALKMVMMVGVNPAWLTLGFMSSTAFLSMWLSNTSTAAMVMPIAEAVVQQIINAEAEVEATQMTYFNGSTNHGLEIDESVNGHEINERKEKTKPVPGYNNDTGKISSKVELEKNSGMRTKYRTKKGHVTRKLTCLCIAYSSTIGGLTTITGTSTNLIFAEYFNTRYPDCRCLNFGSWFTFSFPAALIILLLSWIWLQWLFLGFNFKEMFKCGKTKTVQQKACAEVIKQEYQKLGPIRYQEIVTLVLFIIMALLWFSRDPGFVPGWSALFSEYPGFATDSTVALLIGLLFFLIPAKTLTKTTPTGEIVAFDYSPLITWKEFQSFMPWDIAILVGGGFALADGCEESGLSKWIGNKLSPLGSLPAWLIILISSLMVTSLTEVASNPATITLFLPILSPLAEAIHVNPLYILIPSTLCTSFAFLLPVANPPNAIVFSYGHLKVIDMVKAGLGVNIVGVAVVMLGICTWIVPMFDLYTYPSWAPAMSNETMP
Nature of the data set: cryo-EM structure (IN/IN […] Å, IN/OUT […] Å). Format: binding. As to conditions: substrate site; Na+ bound at Na1 in IN/IN.

Data set [3] concerns the molecule itself. As to the kind of experiment: cryo-EM structure; single-particle cryo-EM of purified NaS1 in 25 mM tris pH 8.0, 150 mM NaCl, 0.01% GDN; apo and sulfate-bound; IN/IN and IN/OUT dimers.
Data set [4] concerns the molecule itself. As to the kind of experiment: cryo-EM structure; single-particle cryo-EM of purified NaDC1 in 20 mM Hepes pH 7.4, 150 mM NaCl, 0.02% GDN; apo, with 10 mM sodium citrate, or with 400 uM ACA; OUT/OUT dimer.

Where a chain is given by its changes, count along the chain named. Names and notes keep the numbering of the source.

As to `CCCCCc1ccc(/C=C/C(=O)Nc2ccccc2C(=O)O)cc1` [ACA], the “whole-cell patch clamp, transfected HEK293T” value on NaDC1 [1] is listed as “A significant decrease in citrate-induced current was detected when ACA was added”. The “cryo-EM structure (3.3 Å)” value on NaDC1 [2] is listed as “the cryo-EM structure of NaDC1 bound with ACA was solved”.
Turning to `O=S(=O)(O)O` [sulfate], the “cryo-EM structure (IN/IN 3.1 Å, IN/OUT 3.2 Å)” value on NaS1 was “there is obvious sulfate density around the classical substrate binding pocket of NaS1_sulfate_IN/IN”.

B1: human NaS1 (SLC13A1), sodium ion-sulfate cotransporter 1 (natural protein, UniProt Q9BZW2 1-595, looked up)
chain: T3 sequence (Q9BZW2 1-595)
notes: full-length human SLC13A1 (NaS1), NP_071889.2, UniProtKB Q9BZW2; No removal of the FLAG tag is described; the protein was captured on anti-FLAG resin and eluted with FLAG peptide; not shown: FLAG, N-terminal, kept
As for B1, in data set [3], the binding result is listed as “binds”.

B2: human NaDC1 (SLC13A2), sodium ion-dicarboxylate cotransporter 1, natural variant I550V (natural protein, UniProt Q13183-1 1-592, looked up)
chain: T1 sequence (Q13183 1-592) with I550V
notes: full-length human SLC13A2 (NaDC1), NP_003975.1, UniProtKB Q13183, with the natural variant I550V that was used to determine the structures; Homodimer in the cryo-EM structures (OUT/OUT; No removal of the FLAG tag is described; the protein was captured on anti-FLAG resin and eluted with FLAG peptide; also called NaDC1_apo; NaDC1_citrate; source: extracted in DDM/CHS, exchanged to GDN); not shown: …
With B2, the binding result in data set [4] was “binds”.
